In ChEMBL document CHEMBL1201862, “PubChem BioAssay data set” (2004):
Calls of active or inactive are those of the source.

Assays:
Aspartyl aminopeptidase = biological target: T1, Aspartyl aminopeptidase (Plasmodium falciparum 3D7, UniProt Q8I2J3); assay: Counterscreen for inhibitors of M1 and M17 aminopeptidases: QFRET-based biochemical high throughput dose response assay for inhibitors of the Plasmodium falciparum M18 Aspartyl Aminopeptidase (PFM18AAP). [Related PubChem assays: 1619 (Screening assay (M17LAP inhibitors).), 1445 (Screening assay (M1AAP inhibitors).)]
T1 sequence (Q8I2J3 whole entry): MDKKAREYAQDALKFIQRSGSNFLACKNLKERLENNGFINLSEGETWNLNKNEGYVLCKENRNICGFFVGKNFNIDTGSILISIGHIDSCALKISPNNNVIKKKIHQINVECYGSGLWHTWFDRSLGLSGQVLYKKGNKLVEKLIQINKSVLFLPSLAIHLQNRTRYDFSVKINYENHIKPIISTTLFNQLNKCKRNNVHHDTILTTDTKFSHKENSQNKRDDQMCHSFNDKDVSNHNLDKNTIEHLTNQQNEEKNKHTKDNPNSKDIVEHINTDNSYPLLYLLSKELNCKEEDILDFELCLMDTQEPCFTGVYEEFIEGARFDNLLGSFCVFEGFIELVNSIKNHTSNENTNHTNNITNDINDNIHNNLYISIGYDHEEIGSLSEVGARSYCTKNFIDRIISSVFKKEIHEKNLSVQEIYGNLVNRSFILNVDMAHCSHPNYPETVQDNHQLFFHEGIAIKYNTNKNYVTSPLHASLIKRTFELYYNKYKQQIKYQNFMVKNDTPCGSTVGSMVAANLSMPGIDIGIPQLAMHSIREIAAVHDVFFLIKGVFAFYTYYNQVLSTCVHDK

Leucine aminopeptidase = biological target: T2, Leucine aminopeptidase (Plasmodium falciparum 3D7, UniProt Q8IL11); assay: P. falciparum M17LAP inhibitors, primary screen, biochemical, fluorogenic H-Leu-NHMec substrate, 1536-well (AID 1619); format: functional
T2 sequence (Q8IL11 whole entry): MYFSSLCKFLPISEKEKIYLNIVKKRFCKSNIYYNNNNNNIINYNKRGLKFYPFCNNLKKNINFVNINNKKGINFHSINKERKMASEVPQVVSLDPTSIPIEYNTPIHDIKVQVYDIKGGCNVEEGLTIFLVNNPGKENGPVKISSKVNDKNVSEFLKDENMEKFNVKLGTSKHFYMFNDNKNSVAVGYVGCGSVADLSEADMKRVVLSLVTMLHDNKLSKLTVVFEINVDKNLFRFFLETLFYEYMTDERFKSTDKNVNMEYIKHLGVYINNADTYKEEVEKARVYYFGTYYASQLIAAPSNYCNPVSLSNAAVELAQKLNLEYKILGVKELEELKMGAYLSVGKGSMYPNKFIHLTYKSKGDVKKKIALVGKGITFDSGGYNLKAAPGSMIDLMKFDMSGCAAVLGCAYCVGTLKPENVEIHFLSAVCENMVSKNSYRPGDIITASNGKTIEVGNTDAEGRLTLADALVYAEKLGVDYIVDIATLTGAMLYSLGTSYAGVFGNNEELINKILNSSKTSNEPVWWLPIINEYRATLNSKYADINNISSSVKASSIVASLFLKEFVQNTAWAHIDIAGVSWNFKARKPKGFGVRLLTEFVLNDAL

Procathepsin L = Procathepsin L (Homo sapiens, UniProt P07711); assay: CTSL1 protease inhibition – biochemical, QFRET, 1536-well, counter-screen for M1/M17 aminopeptidase inhibitor project, dose response (AID 2214)
Procathepsin L, sequence (P07711 whole entry): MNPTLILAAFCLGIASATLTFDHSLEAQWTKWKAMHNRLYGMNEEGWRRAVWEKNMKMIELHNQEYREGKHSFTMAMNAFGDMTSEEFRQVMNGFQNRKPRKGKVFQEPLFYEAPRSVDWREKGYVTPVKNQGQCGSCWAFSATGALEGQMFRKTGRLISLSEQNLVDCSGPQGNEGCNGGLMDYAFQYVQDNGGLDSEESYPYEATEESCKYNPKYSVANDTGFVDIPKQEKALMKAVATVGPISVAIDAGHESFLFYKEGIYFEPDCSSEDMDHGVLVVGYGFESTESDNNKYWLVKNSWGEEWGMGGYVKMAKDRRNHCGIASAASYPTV

fMet-Leu-Phe receptor = fMet-Leu-Phe receptor (Homo sapiens, UniProt P21462); assay: formyl peptide receptor binders – dose response (AID 519); format: functional
fMet-Leu-Phe receptor, sequence (P21462 whole entry): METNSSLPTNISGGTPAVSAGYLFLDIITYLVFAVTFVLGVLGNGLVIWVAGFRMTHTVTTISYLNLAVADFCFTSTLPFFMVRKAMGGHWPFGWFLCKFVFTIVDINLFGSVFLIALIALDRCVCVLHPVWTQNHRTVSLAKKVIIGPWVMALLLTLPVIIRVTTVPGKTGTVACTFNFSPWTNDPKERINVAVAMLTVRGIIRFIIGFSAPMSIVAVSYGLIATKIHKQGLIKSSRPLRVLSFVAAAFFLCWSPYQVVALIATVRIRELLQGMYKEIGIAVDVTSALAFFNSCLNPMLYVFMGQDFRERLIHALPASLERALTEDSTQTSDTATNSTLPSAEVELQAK

Transthyretin = Transthyretin (Homo sapiens, UniProt P02766); assay: Luminescence-based cell-based high throughput dose response assay to identify activators of Transthyretin (TTR) transcription.; format: functional
[1] = P. falciparum Dd2 growth inhibitors, dose response, SYBR Green, cherry-picked samples (AID 1159567); format: functional, cell-based
[2] = growth inhibition of yeast DHODH-expressing 3D7 parasites – SYBR Green, dry powder samples, dose response (AID 1159570); format: functional, cell-based;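 note: parasite growth measured after 72 hours of compound exposure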
[3] = Dd2 parasite growth inhibition in erythrocytes – SYBR Green, dry powder samples, set 9, dose response (AID 1159568); format: functional, cell-based
[4] = Dd2 malaria parasite growth inhibition potency – SYBR Green, dry powder samples, dose response (AID 1159566); format: functional, cell-based;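 note: potency for growth inhibition with lower SYBR green DNA signal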
[5] = Plasmodium falciparum Dd2 Sybr green parasite growth Measured in Cell-Based and Microorganism Combination System Using Plate Reader - 2153-01_Inhibitor_Dose_DryPowder_Activity_Set3.; format: functional
[6] = toxicity to human HepG2 hepatoma cells – cell-based, plate reader, dry powder samples, cytotoxicity control, dose response (AID 1159569); format: functional;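 note: inhibitor potency with signal falling toward the positive control level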
[7] = growth inhibition of PfATP4-mutant resistant parasites – NITD609-resistant line, SYBR Green, dry powder, dose response (AID 1159571); format: functional, cell-based;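 note: parasites synchronized at ring stage by sorbitol before testing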
[8] = biological target: 5-hydroxytryptamine receptor 1A (Homo sapiens, UniProt P08908); format: functional
5-hydroxytryptamine receptor 1A, sequence (P08908 whole entry): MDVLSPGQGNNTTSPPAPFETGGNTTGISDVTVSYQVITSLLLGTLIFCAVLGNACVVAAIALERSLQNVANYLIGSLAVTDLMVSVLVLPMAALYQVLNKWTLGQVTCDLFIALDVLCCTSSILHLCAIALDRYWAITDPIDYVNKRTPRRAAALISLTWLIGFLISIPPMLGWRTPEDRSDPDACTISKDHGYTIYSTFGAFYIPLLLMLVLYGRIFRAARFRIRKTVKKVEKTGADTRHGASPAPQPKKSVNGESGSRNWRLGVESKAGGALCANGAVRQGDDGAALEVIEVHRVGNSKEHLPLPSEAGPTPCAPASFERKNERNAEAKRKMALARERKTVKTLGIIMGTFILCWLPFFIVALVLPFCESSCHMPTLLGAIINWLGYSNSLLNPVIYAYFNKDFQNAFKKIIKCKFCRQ

[9] = biological target: Solute carrier family 12 member 2/member 5 (Homo sapiens, UniProt P55011+Q9H2X9); assay: KCC2 and NKCC1 inhibition by rubidium flux, cell-based, NKCC1 counter-screen (AID 1734); format: functional, HEK293
[10] = cytotoxicity toward HCT116 cells – cell-based, CellTiter-Glo luminescence, IC50, dose response (AID 1117332); format: functional; conditions: HCT-116
[11] = SNU-C1 cell viability reduction, dose response, CellTiter-Glo luminescence (AID 1117323); format: functional, cell-based
[12] = RKO cell viability reduction, dose response, CellTiter-Glo luminescence (AID 1117322); format: functional
[13] = cytotoxicity toward Colo320 cells – cell-based, CellTiter-Glo luminescence, IC50, dose response (AID 1117334); format: functional; conditions: COLO 320
[14] = HCT116 cell viability decrease, GSK3B pretreatment – CellTiter-Glo, IC50, dose response (AID 1117339); format: functional; conditions: HCT-116
[15] = cytotoxicity toward HT-29 cells – cell-based, CellTiter-Glo luminescence, IC50, dose response (AID 1117330); format: functional
[16] = Reduced DLD-1 viability, concentration-response, CellTiter-Glo luminescence (AID 1117352); format: functional
[17] = CellTiter-Glo luminescence survival assay, SW480 colon tumor line, concentration-response curve, half-maximal inhibitory concentration (AID 1117338); format: functional
[18] = biological target: G-protein coupled receptor 183 (Homo sapiens, UniProt P32249); assay: SAR confirmation of small molecule antagonists of the EBI2 receptor via a luminescent beta-arrestin assa.; format: functional
G-protein coupled receptor 183, sequence (P32249 whole entry): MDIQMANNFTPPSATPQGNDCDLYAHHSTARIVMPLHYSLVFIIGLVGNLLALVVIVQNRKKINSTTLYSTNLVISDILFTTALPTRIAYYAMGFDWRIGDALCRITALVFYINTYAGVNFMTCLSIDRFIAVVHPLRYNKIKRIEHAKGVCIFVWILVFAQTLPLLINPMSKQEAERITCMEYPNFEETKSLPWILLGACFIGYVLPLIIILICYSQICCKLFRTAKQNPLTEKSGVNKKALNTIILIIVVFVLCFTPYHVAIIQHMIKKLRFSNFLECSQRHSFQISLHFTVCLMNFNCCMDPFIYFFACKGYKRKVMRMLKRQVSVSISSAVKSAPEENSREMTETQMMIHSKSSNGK

14-3-3 protein gamma = 14-3-3 protein gamma (Homo sapiens, UniProt P61981); assay: modulators of 14-3-3 gamma client binding – dose response (AID 711); format: functional
14-3-3 protein gamma, sequence (P61981 whole entry): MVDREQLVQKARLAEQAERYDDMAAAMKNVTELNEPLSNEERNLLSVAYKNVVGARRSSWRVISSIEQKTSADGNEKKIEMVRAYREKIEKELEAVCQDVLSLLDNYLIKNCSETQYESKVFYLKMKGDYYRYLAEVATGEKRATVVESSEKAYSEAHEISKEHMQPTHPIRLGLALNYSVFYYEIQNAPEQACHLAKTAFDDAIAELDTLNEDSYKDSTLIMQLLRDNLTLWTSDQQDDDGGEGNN

CCOC(=O)c1c(NC(=O)C2C3CCC(O3)C2C(=O)O)sc(C)c1-c1ccc(C)cc1 (centres undefined)
IC50 (Aspartyl aminopeptidase): > 73.5 µM (not active)
IC50 (Leucine aminopeptidase): 6.69 µM (active)
IC50 (Procathepsin L): > 59.6 µM (not active)
Ki (fMet-Leu-Phe receptor): 63.3 µM (inactive)

Cc1cc(C)n(CC(=O)n2c(C)c(C)c3ccccc32)n1
EC50 (Transthyretin): > 167 µM (inactive)

CO[C@@H]1CN(C)C(=O)c2ccc(NC(=O)NC(C)C)cc2OC[C@@H](C)N(Cc2ccccc2)C[C@H]1C
AC50 [1]: 1.78 µM (active)
AC50 [2]: 5.13 µM (active)
AC50 [3]: 0.493 µM (active)
AC50 [4]: 0.299 µM (active)
AC50 [5]: 1.4 µM (active)
AC50 [6]: > 100 µM (inactive)
AC50 [7]: 1.9 µM (active)

CCOC(=O)C1=C(C)NC(=O)NC1c1ccc(OCC(=O)Nc2ccccc2)c(OC)c1 (centres undefined)
EC50 [8]: > 50 µM (not active)

O=C(CN1C(=O)NC2(CCCC2)C1=O)Nc1nc(-c2ccc(F)cc2)cs1
IC50 [9]: 2.9 µM (active)

Cc1c(O)cc2c(c1C)O[C@](C)(CCC[C@H](C)CCC[C@H](C)CCCC(C)C)CC2
IC50 [10]: > 20 µM (inactive)
IC50 [11]: > 20 µM (inactive)
IC50 [12]: > 20 µM (inactive)
IC50 [13]: > 20 µM (inactive)
IC50 [14]: > 20 µM (inactive)
IC50 [15]: > 20 µM (inactive)
IC50 [16]: > 20 µM (inactive)
IC50 [17]: > 20 µM (inactive)

O=C(/C=C/c1ccc(F)cc1)N1CCN(S(=O)(=O)c2ccc3ccccc3c2)CC1
IC50 [18]: 0.0212 µM (active)

Cc1ccc(-n2c(=O)[nH]cc(C(=O)Nc3ccc4c(c3)OCCO4)c2=O)cc1C
IC50 (14-3-3 protein gamma): > 50 µM (not active)
